In US6936623B2, “Pyrano[2,3-C]imidazo[-1,2-A]pyridine derivatives for the treatment of gastrointestinal disorders” (Altana Pharma AG, priority 2000, dated 2005):

System: pentagastrin-stimulated acid secretion of the perfused rat stomach
Conditions: perfused rat stomach in vivo, dose 1 μmol/kg i.v.
Method: The pH (pH meter 632, glass electrode EA 147; φ=5 mm, Metrohm) and, by titration with a freshly prepared 0.01 N NaOH solution to pH 7 (Dosimat 665 Metrohm), the secreted HCl were determined in the effluent in each case collected at an interval of 15 minutes.
The gastric secretion was stimulated by continuous infusion of 1 μg/kg (=1.65 ml/h) of i.v. pentagastrin (left femoral vein) about 30 min after the end of the operation (i.e. after determination of 2 preliminary fractions).
The body temperature of the animals was kept at a constant 37.8-38° C. by infrared irradiation and heat pads (automatic, stepless control by means of a rectal temperature sensor).

| Compound | Inhibition of acid secretion [%] |
| --- | --- |
| COCCO[C@@H]1c2ccn3c(C)c(C)nc3c2O[C@H](c2ccccc2)[C@@H]1O [Example 1, (7R,8R,9R)-2,3-Dimethyl-8-hydroxy-7-(2-methoxyethoxy)-9-phenyl-7H-8,9-dihydro-pyrano-[2,3-c]imidazo[1,2-a]pyridine] | 100 |
| CCO[C@@H]1c2ccn3c(C)c(C)nc3c2O[C@H](c2ccccc2)[C@@H]1O [Example 3, (7R,8R,9R)-2,3-Dimethyl-8-hydroxy-7-ethoxy-9-phenyl-7H-8,9-dihydro-pyrano[2,3-c]imidazo-[1,2-a]pyridine] | 100 |
